How the values were obtained:
[1] = test system: NCI-H23; experiment: Cytotoxicity against human NCI-H23 cells assessed as cell growth at 50 nM after 48 hrs by SRB assay; assay type: functional; details: NCI-H23, 48 h, read-out: Activity
[2] = Cytotoxicity against human RXF393 cells assessed as cell growth at 5 uM after 48 hrs by SRB assay; assay type: functional; details: RXF 393, 48 h, read-out: Activity
[3] = Cytotoxicity against human SKOV3 cells assessed as cell growth at 5 nM after 48 hrs by SRB assay; assay type: functional; details: SK-OV-3, 48 h, read-out: Activity
[4] = test system: MCF7; experiment: Cytotoxicity against human MCF7 cells assessed as cell growth at 50 nM after 48 hrs by SRB assay; assay type: functional; details: MCF7, 48 h, read-out: Activity
[5] = Cytotoxicity against human COLO205 cells assessed as cell growth at 0.5 uM after 48 hrs by SRB assay; assay type: functional; details: COLO 205, 48 h, read-out: Activity
[6] = Cytotoxicity against human SNB19 cells assessed as cell growth at 5 uM after 48 hrs by SRB assay; assay type: functional; details: SNB-19, 48 h, read-out: Activity
[7] = test system: SK-MEL-28; experiment: Cytotoxicity against human SK-MEL-28 cells assessed as cell growth at 0.5 uM after 48 hrs by SRB assay; assay type: functional; details: SK-MEL-28, 48 h, read-out: Activity
[8] = test system: M14; experiment: Cytotoxicity against human M14 cells assessed as cell growth at 50 nM after 48 hrs by SRB assay; assay type: functional; details: M14, 48 h, read-out: Activity
[9] = Cytotoxicity against human BT549 cells assessed as cell growth at 50 uM after 48 hrs by SRB assay; assay type: functional; details: BT-549, 48 h, read-out: Activity
[10] = Cytotoxicity against human LOXIMVI cells assessed as cell growth at 50 uM after 48 hrs by SRB assay; assay type: functional; details: LOX IMVI, read-out: Activity
[11] = Cytotoxicity against human LOXIMVI cells assessed as cell growth at 0.5 uM after 48 hrs by SRB assay; assay type: functional; details: LOX IMVI, read-out: Activity
[12] = Cytotoxicity against human SNB19 cells assessed as growth inhibition after 48 hrs by SRB assay; assay type: functional; details: SNB-19, 48 h; for CC50: read-out: LC50 (the source's name)
[13] = test system: SK-MEL-5; experiment: Cytotoxicity against human SK-MEL-5 cells assessed as cell growth at 50 uM after 48 hrs by SRB assay; assay type: functional; details: SK-MEL-5, 48 h, read-out: Activity
[14] = Cytotoxicity against human RXF393 cells assessed as growth inhibition after 48 hrs by SRB assay; assay type: functional; details: RXF 393, 48 h; for CC50: read-out: LC50 (the source's name)
[15] = Cytotoxicity against human RPMI8226 cells assessed as cell growth at 5 uM after 48 hrs by SRB assay; assay type: functional; details: RPMI-8226, 48 h, read-out: Activity
[16] = Cytotoxicity against human HCT116 cells assessed as growth inhibition after 48 hrs by SRB assay; assay type: functional; details: HCT-116, 48 h
[17] = Cytotoxicity against human TK10 cells assessed as cell growth at 5 nM after 48 hrs by SRB assay; assay type: functional; details: TK-10, 48 h, read-out: Activity
[18] = test system: HT-29; experiment: Cytotoxicity against human HT-29 cells assessed as cell growth at 50 nM after 48 hrs by SRB assay; assay type: functional; details: HT-29, 48 h, read-out: Activity
[19] = Cytotoxicity against human RXF393 cells assessed as cell growth at 0.5 uM after 48 hrs by SRB assay; assay type: functional; details: RXF 393, 48 h, read-out: Activity
[20] = Metabolic stability in human liver microsomes assessed as remaining parent compound level at 10 uM after 3 hrs in absence of NAPDH by LC/MS analysis; assay type: ADME; details: read-out: Drug metabolism
[21] = test system: SK-MEL-5; experiment: Cytotoxicity against human SK-MEL-5 cells assessed as cell growth at 50 nM after 48 hrs by SRB assay; assay type: functional; details: SK-MEL-5, 48 h, read-out: Activity
[22] = test system: MDA-MB-231; experiment: Cytotoxicity against human MDA-MB-231 cells assessed as cell growth at 50 uM after 48 hrs by SRB assay; assay type: functional; details: MDA-MB-231, 48 h, read-out: Activity
[23] = Cytotoxicity against human Caki1 cells assessed as cell growth at 50 uM after 48 hrs by SRB assay; assay type: functional; details: CAKI-1, 48 h, read-out: Activity
[24] = test system: SK-MEL-28; experiment: Cytotoxicity against human SK-MEL-28 cells assessed as cell growth at 50 uM after 48 hrs by SRB assay; assay type: functional; details: SK-MEL-28, 48 h, read-out: Activity
[25] = Cytotoxicity against human NCI-ADR-RES cells assessed as cell growth at 0.5 uM after 48 hrs by SRB assay; assay type: functional; details: read-out: Activity
[26] = Cytotoxicity against human SF295 cells assessed as cell growth at 10^-4 M after 48 hrs by SRB assay; assay type: functional; details: SF-295, 48 h, read-out: Activity
[27] = test system: NCI-H322M; experiment: Cytotoxicity against human NCI-H322M cells assessed as cell growth at 10^-4 M after 48 hrs by SRB assay; assay type: functional; details: read-out: Activity
[28] = test system: NCI-H23; experiment: Cytotoxicity against human NCI-H23 cells assessed as cell growth at 10^-7 M after 48 hrs by SRB assay; assay type: functional; details: NCI-H23, 48 h, read-out: Activity
[29] = Cytotoxicity against human Caki1 cells assessed as cell growth at 10^-8 M after 48 hrs by SRB assay; assay type: functional; details: CAKI-1, 48 h, read-out: Activity
[30] = test system: NCI-H226; experiment: Cytotoxicity against human NCI-H226 cells assessed as cell growth at 10^-6 M after 48 hrs by SRB assay; assay type: functional; details: NCI-H226, 48 h, read-out: Activity
[31] = Cytotoxicity against human SF268 cells assessed as cell growth at 10^-6 M after 48 hrs by SRB assay; assay type: functional; details: SF-268, 48 h, read-out: Activity
[32] = test system: EKVX; experiment: Cytotoxicity against human EKVX cells assessed as cell growth at 10^-5 M after 48 hrs by SRB assay; assay type: functional; details: read-out: Activity
[33] = Cytotoxicity against human OVCAR8 cells assessed as cell growth at 10^-8 M after 48 hrs by SRB assay; assay type: functional; details: OVCAR-8, 48 h, read-out: Activity
[34] = test system: A498; experiment: Cytotoxicity against human A498 cells assessed as cell growth at 10^-8 M after 48 hrs by SRB assay; assay type: functional; details: A498, 48 h, read-out: Activity
[35] = test system: Malme-3M; experiment: Cytotoxicity against human MALME-3M cells assessed as cell growth at 10^-6 M after 48 hrs by SRB assay; assay type: functional; details: read-out: Activity
[36] = Cytotoxicity against human SF268 cells assessed as cell growth at 10^-8 M after 48 hrs by SRB assay; assay type: functional; details: SF-268, 48 h, read-out: Activity
[37] = test system: SR; experiment: Cytotoxicity against human SR cells assessed as cell growth at 10^-4 M after 48 hrs by SRB assay; assay type: functional; details: read-out: Activity
[38] = test system: HT-29; experiment: Cytotoxicity against human HT-29 cells assessed as cell growth at 10^-8 M after 48 hrs by SRB assay; assay type: functional; details: HT-29, 48 h, read-out: Activity
[39] = Cytotoxicity against human SF268 cells assessed as cell growth at 10^-4 M after 48 hrs by SRB assay; assay type: functional; details: SF-268, 48 h, read-out: Activity
[40] = test system: SK-MEL-28; experiment: Cytotoxicity against human SK-MEL-28 cells assessed as cell growth at 10^-5 M after 48 hrs by SRB assay; assay type: functional; details: SK-MEL-28, 48 h, read-out: Activity
[41] = Cytotoxicity against human OVCAR3 cells assessed as cell growth at 10^-8 M after 48 hrs by SRB assay; assay type: functional; details: OVCAR-3, 48 h, read-out: Activity

**Q.** With `CCCCCCCCCC(=O)Oc1ccc(/C(=C(/C)c2ccccc2)c2ccc(OCCN3CCCC3)cc2)cc1` as the compound, how does the growth at 0.05 µM [1] read?
**A.** 96%

**Q.** And the growth at 5 µM [2]?
**A.** 73%

**Q.** What about the growth at 0.005 µM [3] of the same compound?
**A.** 101%

**Q.** And the growth at 0.05 µM [4]?
**A.** 41%

**Q.** What about the growth at 0.5 µM [5] of the same compound?
**A.** 44%

**Q.** What about the growth at 5 µM [6] of the same compound?
**A.** 94%

**Q.** What about the growth at 0.5 µM [7] of the same compound?
**A.** 19%

**Q.** What about the growth at 0.05 µM [8] of the same compound?
**A.** 94%

**Q.** What about the growth at 50 µM [9] of the same compound?
**A.** -76%

**Q.** What about the growth at 50 µM [10] of the same compound?
**A.** -100%

**Q.** And the growth at 0.5 µM [11]?
**A.** 62%

**Q.** And the GI50 [12]?
**A.** 9.04 µM

**Q.** What about the TGI [12] of the same compound?
**A.** 17.7 µM

**Q.** And the CC50 [12]?
**A.** 34.7 µM

**Q.** What about the growth at 50 µM [13] of the same compound?
**A.** -100%

**Q.** And the GI50 [14]?
**A.** 6.95 µM

**Q.** What about the TGI [14] of the same compound?
**A.** 14.1 µM

**Q.** And the CC50 [14]?
**A.** 28.8 µM

**Q.** And the growth at 5 µM [15]?
**A.** 86%

**Q.** What about the GI50 [16] of the same compound?
**A.** 8.01 µM

**Q.** And the LC50 [16]?
**A.** 30.6 µM

**Q.** And the TGI [16]?
**A.** 15.7 µM

**Q.** What about the growth at 0.005 µM [17] of the same compound?
**A.** 96%

**Q.** And the growth at 0.05 µM [18]?
**A.** 98%

**Q.** And the growth at 0.5 µM [19]?
**A.** 61%

**Q.** What about the remaining at 3 h, 10 µM [20] of the same compound?
**A.** 54%

**Q.** And the growth at 0.05 µM [21]?
**A.** 102%

**Q.** What about the growth at 50 µM [22] of the same compound?
**A.** -67%

**Q.** What about the growth at 50 µM [23] of the same compound?
**A.** -89%

**Q.** What about the growth at 50 µM [24] of the same compound?
**A.** -95%

**Q.** And the growth at 0.5 µM [25]?
**A.** 73%

**Q.** What does the source list for `C/C(=C(/c1ccc(O)cc1)c1ccc(OCCN2CCCC2)cc1)c1ccccc1`?
**A.** growth at 100 µM [26]: -95%; growth at 100 µM [27]: -91%; growth at 0.1 µM [28]: 94%; growth at 0.01 µM [29]: 87%; growth at 1 µM [30]: 91%; growth at 1 µM [31]: 88%; growth at 10 µM [32]: 6%; growth at 0.01 µM [33]: 104%; growth at 0.01 µM [34]: 66%; GI50 [12]: 2.95 µM; TGI [12]: 8.1 µM; CC50 [12]: 42.2 µM; GI50 [14]: 2 µM; TGI [14]: 5.05 µM; CC50 [14]: 19.8 µM; growth at 1 µM [35]: 88%; GI50 [16]: 2.92 µM; LC50 [16]: 32.6 µM; TGI [16]: 10.1 µM; growth at 0.01 µM [36]: 98%; growth at 100 µM [37]: -66%; growth at 0.01 µM [38]: 101%; growth at 100 µM [39]: -80%; growth at 10 µM [40]: -74%; growth at 0.01 µM [41]: 106%

Reference: ChEMBL document CHEMBL3774317, “Design and synthesis of novel tamoxifen analogues that avoid CYP2D6 metabolism” (Eur J Med Chem, 2016)
